Experiments:
rats = experiment: Urine biochemistry parameters in Gentamicin-treated rats; format: in vivo, rat; conditions: 60 mg/kg/day
Experimental: (§1) Gentamicin, a known kidney toxin, was used to treat rats at a range of doses known to produce varying degrees of bistopathologically evident kidney response. […] The rat groups included 10 male rats per treated group, and 20 male rats in the untreated (control) group. Blood samples from rats treated at 40 mg/kg/day after 8 days were taken for proteome analysis, and kidney cortex tissue samples from rats treated at 0.1, 1.0, 10, and 40 mg/kg/day after 8 and 22 days for each group were taken for proteome analysis. Kidney cortex tissue samples were also prepared for histologic examination according to standard tissue preparation protocols.
(§2) At 60 mg/kg/day there were changes in urine biochemistry parameters (raised NAG (N-acetyl-beta-D-glucosaminidase), GGT (gamma-glutamyl-transpeptidase) and urine volume, depressed specific gravity), consistent with kidney damage.

[1] = system: proximal convoluted tubule epithelium of the kidney; experiment: Histologic examination of kidney cortex tissue of Gentamicin-treated rats; format: in vivo, rat
Experimental: as §1, §2

Gentamicin
urine GGT (gamma-glutamyl-transpeptidase) (rats): raised
urine NAG (N-acetyl-beta-D-glucosaminidase) (rats): raised
urine specific gravity (rats): depressed
histologic examination of kidney ([1]; 60 mg/kg): single cell necrosis and loss of brush border of the proximal convoluted tubule epithelium of the kidney
histologic finding after withdrawal of treatment ([1]; seven days after the withdrawal of treatment): evidence of cortical tubular regeneration

From patent publication US20040053309A1, “Proteins, genes and their use for diagnosis and treatment of kidney response” (priority 2000, published 2004)
